In patent publication US9474736B2, “Composition and method for treating dry eye syndrome” (RAMSCOR, INC., priority 2008, dated 2016):
“Also recorded” adds a separate entry of the source.

Key:
[1] = Water evaporation from tocopherol/water emulsions; assay type: physicochemical; conditions: uncapped vials, ambient conditions, nine days
Procedure: FIG. 3 is a bar graph depicting the percent water evaporation from a tocopherol/water emulsions at nine days, shown as the percent water lost.
Mixtures of α-tocopheryl acetate (EA), d-α-tocopheryl polyethylene glycol 1000 succinate (TPGS) and water were prepared at the ratios shown in Table 1, weighed, and placed in 20 ml-sized glass vials. Vials #1 through #6 were each capped and sonicated for two minutes to yield stable emulsions. The vials #1 through #8 were then uncapped and left at ambient conditions for nine days. All the emulsions in vials #1 through #6 remained stable. All vials were weighed subsequently to measure weight (water) loss. […] Results are also depicted in FIG. 3.

[2] = parameters: species or system New Zealand White (NZW) rabbits; conditions: both, New Zealand White, rabbit, in vivo
Procedure: FIG. 2 is a graph showing the levels of α-tocopheryl acetate in the tears of rabbits over the course of seven days after the rabbits were administered one drop of α-tocopheryl acetate (3.6 mg, 3.9 mg, 5.4 mg, or 6.0 mg) on day one.
Four adult New Zealand White (NZW) rabbits (two females, two males) each weighing 4.5 kilo to 5.0 kilo were used in this example. One drop of α-tocopheryl acetate, each weighing 3.6 mg, 3.9 mg, 5.4 mg and 6.0 mg, was instilled onto one eye of each animal. Tear samples were collected daily by filter paper, weighed, eluted in 300 μl MeOH and analyzed for tocopheryl acetate (EA) by LC/MS/MS. Detected tear levels of EA over a seven-day period ranged from 15 μg/ml to 36 μg/ml with a mean of 26 μg/ml (26,000 ng/ml). Detectable levels of EA in the cul-de-sac of the rabbit eye may last beyond seven days.

CDE symptoms = test: Alleviation of CDE symptoms in contact lens-wearing individual, subjective comfort; assay type: in vivo, human
Excerpt: FIG. 1 is a bar graph depicting the subjective comfort of an individual applying a drop of α-tocopheryl acetate into the eye(s) before bedtime preceding the days indicated. Subjective comfort is depicted on a scale of 1 to 10; with 1 being very irritated, and right eye feeling swollen; and 10 being very comfortable and tolerable compared to no drops.
A volunteer used one drop of α-tocopheryl acetate in one or more eyes at night, and reported the irritation or comfort on a subjective scale of 1-to-10, (maximum irritation “1”, maximum comfort “10”) as shown in FIG. 1. At days 1 to 5, the individual placed one drop in the right eye only.

[3] = Water or saline stably absorbed in α-tocopheryl acetate (evaporative weight loss); assay type: physicochemical; conditions: sealed vials, 30° C., after 12 hrs
Procedure: In an alternative study, the concentrations of water or saline that would remain stably absorbed in α-tocopheryl acetate (EA) were examined. Equal volumes of water or 0.9% saline were placed with EA in sealed vials at 30° C. Samples of the resultant EA plus absorbed aqueous were removed at several time points and the water contents were assayed by evaporative weight loss to constant weight over time at 30° C. open to the air. After 12 hrs exposure of EA to water or the saline solution in sealed vials at 30° C. the maximum amounts of aqueous solutions absorbed in EA were reached. The resultant values were: 0.3% water absorbed and 0.6% saline solution absorbed.

dry eye syndrome = test: Topical application of α-tocopheryl acetate eyedrop in human volunteers with dry eye symptoms; conditions: for duration of relief from dry eye symptoms: one drop about 50 μl

With `CC(=O)Oc1c(C)c(C)c2c(c1C)CCC(C)(CCC[C@H](C)CCC[C@H](C)CCCC(C)C)O2` (stereo partly drawn) [vial 8, α-tocopheryl acetate] the g wt loss [1] was “lost no weight”.

In the case of `CC(=O)Oc1c(C)c(C)c2c(c1C)CCC(C)(CCC[C@H](C)CCC[C@H](C)CCCC(C)C)O2` (stereo partly drawn) [α-tocopheryl acetate], the “detected tear levels of EA, mean” value [2] is reported as 26,000 ng/ml, the “ability to wear contact lenses” value (CDE symptoms; days 30-38, eyedrops not applied every single night) is reported as “able to wear contact lenses (days 30-38) in relative comfort” and the “duration of comfort before re-applying eyedrops” value (CDE symptoms; volunteer, one drop at night) is reported as “up to five days”. For the same molecule, the “maximum saline solution absorbed in EA” value ([3]; equal volumes 0.9% saline and EA) was 0.6%, the “maximum water absorbed in EA” value ([3]; equal volumes water and EA) was 0.3% and the “irritation or blurred vision reported” value (dry eye syndrome; one drop about 50 μl in eye, two human volunteers) was “No irritation or blurred vision”. For the same molecule, the “duration of relief from dry eye symptoms” value (dry eye syndrome; no repeat applications, both volunteers) was “several days; also recorded: at least one day” and the “duration of relief from dry eye symptoms” value (dry eye syndrome; one subject) was “at least seven days”.
